Experimental data reported in ChEMBL document CHEMBL4190351, “Synthesis and biological evaluation of novel 6,11-dihydro-5H-benzo[e]pyrimido- [5,4-b][1,4]diazepine derivatives as potential c-Met inhibitors” (Eur J Med Chem, 2017).

How the values were obtained:
[1] = Toxicity in KM mouse assessed as mouse survival at 820 mg/kg, po administered as single dose measured daily for 14 days (reference value: 100%); assay type: organism-based; conditions: in vivo
[2] = MRT (0 to t) in Sprague-Dawley rat at 20 mg/kg, po measured after 5 mins to 4 hrs post dose by LC-MS/MS method; assay type: ADME, organism-based; conditions: in vivo
[3] = Toxicity in KM mouse assessed as mouse survival at 620 mg/kg, po administered as single dose measured daily for 14 days (reference value: 100%); assay type: organism-based; conditions: in vivo
[4] = molecular target: T1, Receptor-type tyrosine-protein kinase FLT3 (Homo sapiens, UniProt P36888); assay: Inhibition of FLT3 (unknown origin)
T1 sequence (P36888 whole entry): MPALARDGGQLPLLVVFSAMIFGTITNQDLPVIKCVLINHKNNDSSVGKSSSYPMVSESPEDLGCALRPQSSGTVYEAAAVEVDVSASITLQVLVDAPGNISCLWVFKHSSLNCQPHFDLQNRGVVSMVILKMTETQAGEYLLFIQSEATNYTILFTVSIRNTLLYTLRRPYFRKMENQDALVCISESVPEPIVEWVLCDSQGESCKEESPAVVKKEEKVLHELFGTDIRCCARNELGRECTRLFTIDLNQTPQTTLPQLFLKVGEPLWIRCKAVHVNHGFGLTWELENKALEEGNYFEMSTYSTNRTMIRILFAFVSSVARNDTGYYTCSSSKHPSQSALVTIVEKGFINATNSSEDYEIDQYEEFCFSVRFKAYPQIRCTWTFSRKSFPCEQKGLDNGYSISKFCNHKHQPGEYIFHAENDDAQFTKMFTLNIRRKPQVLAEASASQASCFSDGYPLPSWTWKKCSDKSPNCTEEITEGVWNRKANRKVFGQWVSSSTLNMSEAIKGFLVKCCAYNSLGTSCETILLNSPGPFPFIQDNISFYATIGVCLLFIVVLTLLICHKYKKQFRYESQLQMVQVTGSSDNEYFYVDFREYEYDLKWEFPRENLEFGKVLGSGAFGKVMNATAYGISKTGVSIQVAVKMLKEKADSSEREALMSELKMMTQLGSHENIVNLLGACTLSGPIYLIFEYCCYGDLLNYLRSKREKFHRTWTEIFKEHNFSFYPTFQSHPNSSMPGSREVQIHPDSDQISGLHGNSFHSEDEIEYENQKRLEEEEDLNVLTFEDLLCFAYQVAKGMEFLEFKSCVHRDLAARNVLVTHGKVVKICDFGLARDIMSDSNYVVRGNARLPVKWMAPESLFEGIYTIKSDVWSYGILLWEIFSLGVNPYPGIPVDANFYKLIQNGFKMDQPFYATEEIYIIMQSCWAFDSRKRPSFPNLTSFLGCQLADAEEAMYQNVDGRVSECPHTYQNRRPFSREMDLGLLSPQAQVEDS

[5] = Toxicity in KM mouse assessed as mouse survival at 920 mg/kg, po administered as single dose measured daily for 14 days (reference value: 100%); assay type: organism-based; conditions: in vivo
[6] = Cmax in Sprague-Dawley rat at 20 mg/kg, po measured after 5 mins to 4 hrs post dose by LC-MS/MS method; assay type: ADME, organism-based; set-up: dose 20 mg/kg, route oral; conditions: in vivo
[7] = Cmax in Sprague-Dawley rat at 4 mg/kg, iv measured after 5 mins to 4 hrs post dose by LC-MS/MS method; assay type: ADME, organism-based; set-up: dose 4 mg/kg, route intravenous; conditions: in vivo
[8] = molecular target: Voltage-gated inwardly rectifying potassium channel KCNH2 (Homo sapiens, UniProt Q12809); assay: Inhibition of human ERG at holding potential of -80 mV by cell based automated Qpatch method
[9] = Elimination half life in Sprague-Dawley rat at 4 mg/kg, iv measured after 5 mins to 4 hrs post dose by LC-MS/MS method; assay type: ADME, organism-based; conditions: in vivo, read-out: beta t1/2 (converted)
[10] = system: CAKI-1; assay: Antitumor activity in human Caki1 cells xenografted in nude mouse assessed as inhibition of tumor growth at 80 mg/kg, ig qd for 21 days; assay type: functional; conditions: CAKI-1, po, 504 h, read-out: TGI
[11] = molecular target: Proto-oncogene tyrosine-protein kinase receptor Ret (Homo sapiens, UniProt P07949); assay: Inhibition of RET (unknown origin)
Chain of Proto-oncogene tyrosine-protein kinase receptor Ret (P07949 whole entry): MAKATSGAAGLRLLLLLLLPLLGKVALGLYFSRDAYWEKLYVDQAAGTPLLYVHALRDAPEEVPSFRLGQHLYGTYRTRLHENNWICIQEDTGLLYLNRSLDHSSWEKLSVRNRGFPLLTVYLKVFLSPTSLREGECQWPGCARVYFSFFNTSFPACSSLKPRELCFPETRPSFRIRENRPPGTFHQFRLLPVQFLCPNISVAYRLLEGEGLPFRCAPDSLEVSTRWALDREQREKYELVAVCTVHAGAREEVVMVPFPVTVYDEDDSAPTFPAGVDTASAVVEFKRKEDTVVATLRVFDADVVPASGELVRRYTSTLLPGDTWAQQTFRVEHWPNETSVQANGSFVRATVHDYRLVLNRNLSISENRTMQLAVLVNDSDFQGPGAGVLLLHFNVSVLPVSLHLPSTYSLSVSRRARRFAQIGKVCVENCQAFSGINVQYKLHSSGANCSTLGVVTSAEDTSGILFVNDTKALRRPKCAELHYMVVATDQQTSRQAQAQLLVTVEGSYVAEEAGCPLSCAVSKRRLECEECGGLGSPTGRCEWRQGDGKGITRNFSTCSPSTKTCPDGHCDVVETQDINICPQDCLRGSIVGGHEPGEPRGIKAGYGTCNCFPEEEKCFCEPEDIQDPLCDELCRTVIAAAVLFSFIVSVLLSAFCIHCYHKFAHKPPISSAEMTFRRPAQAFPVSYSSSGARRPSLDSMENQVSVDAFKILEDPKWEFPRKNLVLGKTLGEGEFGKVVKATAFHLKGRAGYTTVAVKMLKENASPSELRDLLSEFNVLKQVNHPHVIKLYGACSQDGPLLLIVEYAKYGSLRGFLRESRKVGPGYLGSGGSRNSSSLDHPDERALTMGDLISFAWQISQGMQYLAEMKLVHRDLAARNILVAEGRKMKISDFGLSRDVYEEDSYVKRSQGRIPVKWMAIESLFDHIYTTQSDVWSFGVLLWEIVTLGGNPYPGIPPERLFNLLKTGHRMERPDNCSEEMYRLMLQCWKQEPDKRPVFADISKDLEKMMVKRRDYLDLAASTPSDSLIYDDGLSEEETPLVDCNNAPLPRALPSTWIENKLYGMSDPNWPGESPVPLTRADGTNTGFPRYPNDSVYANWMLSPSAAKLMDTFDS

[12] = Tmax in Sprague-Dawley rat at 20 mg/kg, po measured after 5 mins to 4 hrs post dose by LC-MS/MS method; assay type: ADME, organism-based; conditions: in vivo
[13] = Oral bioavailability in Sprague-Dawley rat at 20 mg/kg measured after 5 mins to 4 hrs post dose by LC-MS/MS method; assay type: ADME, organism-based; conditions: in vivo
[14] = system: Mus musculus; assay: Toxicity in KM mouse assessed as mouse mortality at 420 mg/kg, po administered as single dose measured daily for 14 days; assay type: organism-based; conditions: in vivo, 336 h
[15] = Apparent clearance during terminal phase in Sprague-Dawley rat at 20 mg/kg, po measured after 5 mins to 4 hrs post dose by LC-MS/MS method; assay type: ADME, organism-based; conditions: in vivo, read-out: CLz/F (converted)
[16] = Apparent volume of distribution during terminal phase in Sprague-Dawley rat at 20 mg/kg, po measured after 5 mins to 4 hrs post dose by LC-MS/MS method; assay type: ADME, organism-based; conditions: in vivo, read-out: Vz/F
[17] = Toxicity in KM mouse assessed as mouse survival at 420 mg/kg, po administered as single dose measured daily for 14 days (reference value: 100%); assay type: organism-based; conditions: in vivo
[18] = Toxicity in KM mouse assessed as mouse survival at 720 mg/kg, po administered as single dose measured daily for 14 days (reference value: 100%); assay type: organism-based; conditions: in vivo
[19] = Toxicity in KM mouse assessed as mouse survival at 520 mg/kg, po administered as single dose measured daily for 14 days (reference value: 100%); assay type: organism-based; conditions: in vivo
[20] = system: Mus musculus; assay: Toxicity in KM mouse assessed as mouse mortality at 620 mg/kg, po administered as single dose measured daily for 14 days; assay type: organism-based; conditions: in vivo, 336 h
[21] = system: Rattus norvegicus; assay: Apparent clearance during terminal phase in Sprague-Dawley rat at 4 mg/kg, iv measured after 5 mins to 4 hrs post dose by LC-MS/MS method; assay type: ADME, organism-based; conditions: in vivo
[22] = AUC (0 to infinity) in Sprague-Dawley rat at 4 mg/kg, iv measured after 5 mins to 4 hrs post dose by LC-MS/MS method; assay type: ADME, organism-based; set-up: dose 4 mg/kg, time infinity, route intravenous; conditions: in vivo
[23] = molecular target: Mast/stem cell growth factor receptor Kit (Homo sapiens, UniProt P10721); assay: Inhibition of cKIT (unknown origin)
[24] = system: CAKI-1; assay: Antitumor activity in human Caki1 cells xenografted in nude mouse assessed as inhibition of tumor growth at 20 mg/kg, ig qd for 21 days; assay type: functional; conditions: CAKI-1, po, 504 h, read-out: TGI
[25] = system: Rattus norvegicus; assay: Apparent volume of distribution during terminal phase in Sprague-Dawley rat at 4 mg/kg, iv measured after 5 mins to 4 hrs post dose by LC-MS/MS method; assay type: ADME, organism-based; conditions: in vivo
[26] = AUC (0 to t) in Sprague-Dawley rat at 4 mg/kg, iv measured after 5 mins to 4 hrs post dose by LC-MS/MS method; assay type: ADME, organism-based; set-up: time 0.083-4 hr, dose 4 mg/kg, route intravenous; conditions: in vivo
[27] = system: CAKI-1; assay: Antitumor activity in human Caki1 cells xenografted in nude mouse assessed as inhibition of tumor growth at 40 mg/kg, ig qd for 21 days; assay type: functional; conditions: CAKI-1, po, 504 h, read-out: TGI
[28] = Elimination half life in Sprague-Dawley rat at 20 mg/kg, po measured after 5 mins to 4 hrs post dose by LC-MS/MS method; assay type: ADME, organism-based; conditions: in vivo, read-out: beta t1/2 (converted)
[29] = system: HepG2; assay: Cytotoxicity in human HepG2 cells incubated for 72 hrs by sulforhodamine B assay; conditions: HepG2, 72 h
[30] = molecular target: Vascular endothelial growth factor receptor 2 (Homo sapiens, UniProt P35968); assay: Inhibition of VEGFR2 (unknown origin)
Chain of Vascular endothelial growth factor receptor 2 (P35968 whole entry): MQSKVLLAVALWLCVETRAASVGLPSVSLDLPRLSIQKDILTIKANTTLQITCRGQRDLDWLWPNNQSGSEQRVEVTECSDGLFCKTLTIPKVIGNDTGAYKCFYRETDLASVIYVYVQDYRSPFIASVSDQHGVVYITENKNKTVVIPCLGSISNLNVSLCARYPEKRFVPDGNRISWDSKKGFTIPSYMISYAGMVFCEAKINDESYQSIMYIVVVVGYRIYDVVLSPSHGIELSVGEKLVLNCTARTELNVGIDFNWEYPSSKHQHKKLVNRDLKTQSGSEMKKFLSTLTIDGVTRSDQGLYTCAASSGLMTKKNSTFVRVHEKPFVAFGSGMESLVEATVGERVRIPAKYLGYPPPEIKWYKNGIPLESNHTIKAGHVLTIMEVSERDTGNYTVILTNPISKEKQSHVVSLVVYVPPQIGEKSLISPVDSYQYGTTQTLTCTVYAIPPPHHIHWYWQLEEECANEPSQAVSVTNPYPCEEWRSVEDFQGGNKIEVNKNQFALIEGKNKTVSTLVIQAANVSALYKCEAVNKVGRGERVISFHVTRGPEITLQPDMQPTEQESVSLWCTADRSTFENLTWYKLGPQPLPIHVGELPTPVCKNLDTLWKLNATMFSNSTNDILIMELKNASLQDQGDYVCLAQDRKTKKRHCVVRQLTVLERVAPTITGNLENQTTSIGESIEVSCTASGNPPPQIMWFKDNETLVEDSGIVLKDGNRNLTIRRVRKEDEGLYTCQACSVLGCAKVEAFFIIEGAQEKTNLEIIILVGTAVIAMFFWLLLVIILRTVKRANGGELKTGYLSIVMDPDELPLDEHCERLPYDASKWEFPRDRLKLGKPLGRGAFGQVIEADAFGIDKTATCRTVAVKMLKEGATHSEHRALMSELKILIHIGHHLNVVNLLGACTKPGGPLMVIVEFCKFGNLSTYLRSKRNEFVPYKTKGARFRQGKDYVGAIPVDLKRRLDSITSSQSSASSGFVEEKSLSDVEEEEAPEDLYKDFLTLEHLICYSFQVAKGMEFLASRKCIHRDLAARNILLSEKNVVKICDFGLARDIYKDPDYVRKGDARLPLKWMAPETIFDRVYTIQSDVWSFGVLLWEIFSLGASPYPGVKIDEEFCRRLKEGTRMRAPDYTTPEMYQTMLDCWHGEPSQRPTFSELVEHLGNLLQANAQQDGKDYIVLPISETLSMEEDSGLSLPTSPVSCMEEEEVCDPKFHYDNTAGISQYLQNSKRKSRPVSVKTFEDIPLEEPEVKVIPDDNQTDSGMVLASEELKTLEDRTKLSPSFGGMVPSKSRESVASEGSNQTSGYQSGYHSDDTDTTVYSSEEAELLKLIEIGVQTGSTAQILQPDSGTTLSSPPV

[31] = molecular target: Hepatocyte growth factor receptor (Homo sapiens, UniProt P08581); assay: Inhibition of cMet (unknown origin) using poly(Glu, Tyr)4:1 substrate and ATP incubated fro 60 mins by ELISA
Chain of Hepatocyte growth factor receptor (P08581 whole entry): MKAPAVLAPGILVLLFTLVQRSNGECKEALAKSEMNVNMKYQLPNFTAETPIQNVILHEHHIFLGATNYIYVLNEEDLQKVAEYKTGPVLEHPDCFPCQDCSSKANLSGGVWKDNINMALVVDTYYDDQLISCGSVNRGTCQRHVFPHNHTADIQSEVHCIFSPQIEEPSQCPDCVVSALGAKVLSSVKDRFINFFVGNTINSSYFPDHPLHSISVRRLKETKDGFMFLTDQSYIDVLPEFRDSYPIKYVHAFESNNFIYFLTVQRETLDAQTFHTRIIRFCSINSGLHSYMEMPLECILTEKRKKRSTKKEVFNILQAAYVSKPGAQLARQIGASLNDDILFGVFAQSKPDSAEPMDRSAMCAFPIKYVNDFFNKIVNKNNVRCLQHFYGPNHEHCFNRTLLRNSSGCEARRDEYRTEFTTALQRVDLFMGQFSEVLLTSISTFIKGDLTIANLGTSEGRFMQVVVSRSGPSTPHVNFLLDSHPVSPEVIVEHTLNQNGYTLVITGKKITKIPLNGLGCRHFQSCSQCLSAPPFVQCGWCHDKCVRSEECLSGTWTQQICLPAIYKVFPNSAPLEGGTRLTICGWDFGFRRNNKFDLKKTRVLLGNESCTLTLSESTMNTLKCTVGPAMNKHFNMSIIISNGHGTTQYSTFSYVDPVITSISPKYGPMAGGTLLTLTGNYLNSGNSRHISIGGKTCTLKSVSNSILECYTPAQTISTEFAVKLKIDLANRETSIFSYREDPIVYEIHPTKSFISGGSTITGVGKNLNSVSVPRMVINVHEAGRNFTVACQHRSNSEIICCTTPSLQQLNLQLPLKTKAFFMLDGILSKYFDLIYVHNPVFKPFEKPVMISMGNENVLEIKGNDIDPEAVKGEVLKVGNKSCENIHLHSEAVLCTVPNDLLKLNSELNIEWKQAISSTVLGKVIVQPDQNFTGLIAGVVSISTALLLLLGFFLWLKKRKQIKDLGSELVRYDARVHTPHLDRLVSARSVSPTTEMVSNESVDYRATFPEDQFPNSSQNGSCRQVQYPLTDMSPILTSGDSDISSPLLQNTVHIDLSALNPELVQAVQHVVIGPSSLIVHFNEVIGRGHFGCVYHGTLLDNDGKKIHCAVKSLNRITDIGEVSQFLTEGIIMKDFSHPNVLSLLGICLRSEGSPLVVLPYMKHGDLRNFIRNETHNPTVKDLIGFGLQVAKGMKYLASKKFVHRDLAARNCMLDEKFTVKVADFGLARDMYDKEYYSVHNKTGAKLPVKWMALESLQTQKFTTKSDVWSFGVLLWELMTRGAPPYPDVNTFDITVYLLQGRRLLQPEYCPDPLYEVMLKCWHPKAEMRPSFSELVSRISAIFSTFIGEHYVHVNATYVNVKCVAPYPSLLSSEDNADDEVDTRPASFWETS

[32] = system: Mus musculus; assay: Toxicity in KM mouse assessed as mouse mortality at 520 mg/kg, po administered as single dose measured daily for 14 days; assay type: organism-based; conditions: in vivo, 336 h
[33] = system: PANC-1; assay: Cytotoxicity in human PANC1 cells incubated for 72 hrs by sulforhodamine B assay; conditions: PANC-1, 72 h
[34] = system: PC-3; assay: Cytotoxicity in human PC3 cells incubated for 72 hrs by sulforhodamine B assay; conditions: PC-3, 72 h
[35] = AUC (0 to t) in Sprague-Dawley rat at 20 mg/kg, po measured after 5 mins to 4 hrs post dose by LC-MS/MS method; assay type: ADME, organism-based; set-up: time 0.083-4 hr, dose 20 mg/kg, route oral; conditions: in vivo
[36] = molecular target: Epidermal growth factor receptor (Homo sapiens, UniProt P00533); assay: Inhibition of EGFR (unknown origin)
Chain of Epidermal growth factor receptor (P00533 whole entry): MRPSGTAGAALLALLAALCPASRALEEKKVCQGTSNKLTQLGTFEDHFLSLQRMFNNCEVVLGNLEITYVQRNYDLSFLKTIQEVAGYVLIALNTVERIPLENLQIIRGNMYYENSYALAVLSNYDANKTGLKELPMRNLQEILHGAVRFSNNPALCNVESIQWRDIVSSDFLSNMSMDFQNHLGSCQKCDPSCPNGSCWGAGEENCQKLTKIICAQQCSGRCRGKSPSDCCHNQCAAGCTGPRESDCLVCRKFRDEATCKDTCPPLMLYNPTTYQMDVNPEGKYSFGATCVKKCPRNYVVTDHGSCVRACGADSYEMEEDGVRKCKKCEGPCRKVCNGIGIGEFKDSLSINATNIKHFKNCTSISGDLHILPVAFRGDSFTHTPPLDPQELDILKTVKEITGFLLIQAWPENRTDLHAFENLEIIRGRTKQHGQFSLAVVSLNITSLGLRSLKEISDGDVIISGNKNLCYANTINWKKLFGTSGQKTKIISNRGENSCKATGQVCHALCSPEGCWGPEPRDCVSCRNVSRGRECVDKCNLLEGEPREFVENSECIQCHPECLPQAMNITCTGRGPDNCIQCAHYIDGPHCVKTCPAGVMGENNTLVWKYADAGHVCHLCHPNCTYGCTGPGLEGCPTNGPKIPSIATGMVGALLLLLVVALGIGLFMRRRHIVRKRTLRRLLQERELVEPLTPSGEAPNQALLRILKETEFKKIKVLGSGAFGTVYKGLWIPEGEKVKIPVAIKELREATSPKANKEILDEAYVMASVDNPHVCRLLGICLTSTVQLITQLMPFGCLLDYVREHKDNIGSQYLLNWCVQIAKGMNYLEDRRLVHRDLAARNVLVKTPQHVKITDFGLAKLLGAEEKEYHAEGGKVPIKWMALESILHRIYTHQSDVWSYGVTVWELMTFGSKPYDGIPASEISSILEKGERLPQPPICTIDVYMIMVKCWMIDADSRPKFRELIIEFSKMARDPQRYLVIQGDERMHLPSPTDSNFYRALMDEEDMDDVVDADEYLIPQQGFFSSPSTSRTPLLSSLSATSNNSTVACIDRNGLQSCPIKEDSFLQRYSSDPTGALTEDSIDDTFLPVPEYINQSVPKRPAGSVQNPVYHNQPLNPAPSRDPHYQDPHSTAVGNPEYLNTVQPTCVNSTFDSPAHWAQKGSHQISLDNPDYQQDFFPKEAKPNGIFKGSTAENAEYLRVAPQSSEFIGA

[37] = MRT (0 to t) in Sprague-Dawley rat at 4 mg/kg, iv measured after 5 mins to 4 hrs post dose by LC-MS/MS method; assay type: ADME, organism-based; conditions: in vivo
[38] = system: Mus musculus; assay: Toxicity in human Caki1 cells xenografted nude mouse assessed as drug tolerance at 20 to 80 mg/kg, ig qd for 21 days; assay type: organism-based; conditions: in vivo, po, 504 h
[39] = AUC (0 to infinity) in Sprague-Dawley rat at 20 mg/kg, po measured after 5 mins to 4 hrs post dose by LC-MS/MS method; assay type: ADME, organism-based; set-up: dose 20 mg/kg, time infinity, route oral; conditions: in vivo
[40] = system: CAKI-1; assay: Cytotoxicity in human Caki1 cells incubated for 72 hrs by sulforhodamine B assay; conditions: CAKI-1, 72 h

COc1cc2c(cc1OC)Nc1ncnc(Oc3ccc(NC(=O)C4(C(=O)Nc5ccc(F)cc5)CC4)cc3F)c1NC2
survival at 336 h [1]: 60%
MRT last [2]: 2.36 h
survival at 336 h [3]: 100%
IC50 [4]: 852 nM
survival at 336 h [5]: 40%
Cmax [6]: 1930 ng/mL
Cmax [7]: 4660 ng/mL
IC50 [8]: > 40000 nM
half-life [9]: 0.91 h
inhibition in vivo at 80 mg/kg [10]: 64.5%
IC50 [11]: 163 nM
Tmax [12]: 1.67 h
bioavailability [13]: 39%
Activity [14]: Non-Toxic
CL/F [15]: 48.8 mL/min/kg
Vd/F [16]: 4.52 L/kg
survival at 336 h [17]: 100%
survival at 336 h [18]: 80%
survival at 336 h [19]: 100%
Activity [20]: Non-Toxic
CLz/F [21]: 19 mL/min/kg
AUC(0-inf) [22]: 3590 ng·h/mL
IC50 [23]: 259 nM
inhibition in vivo at 20 mg/kg [24]: 51.1%
Vz/F [25]: 1.48 L/kg
AUC(0-t) [26]: 3590 ng·h/mL
inhibition in vivo at 40 mg/kg [27]: 58.9%
half-life [28]: 1.09 h
IC50 [29]: 2950 nM
IC50 [30]: 62.5 nM
IC50 [31]: 24.4 nM
Activity [32]: Non-Toxic
IC50 [33]: 1860 nM
IC50 [34]: 4100 nM
AUC(0-t) [35]: 6990 ng·h/mL
IC50 [36]: 268 nM
MRT last [37]: 1 h
Activity [38]: Non-Toxic
AUC(0-inf) [39]: 7080 ng·h/mL
IC50 [40]: 748 nM

COc1cc2c(cc1OC)C(=O)Nc1c(ncnc1Oc1ccc(NC(=O)C3(C(=O)Nc4ccc(F)cc4)CC3)cc1)N2
IC50 [31]: > 1000 nM

COc1cc2c(cc1OC)C(=O)Nc1c(Oc3ccc(NC(=O)C4(C(=O)Nc5ccc(F)cc5)CC4)cc3)ccnc1N2
IC50 [31]: > 1000 nM

COc1cc2c(cc1OC)Nc1ncnc(Oc3ccc(NC(=O)C4(C(=O)Nc5ccc(F)cc5)CC4)cc3)c1N(C)C2
IC50 [31]: > 1000 nM

Cc1nc(Oc2ccc(NC(=O)C3(C(=O)Nc4ccc(F)cc4)CC3)cc2)c2c(n1)Oc1ccccc1C=N2
IC50 [31]: > 1000 nM

COc1cc2c(cc1OC)Nc1nccc(Oc3ccc(NC(=O)C4(C(=O)Nc5ccc(F)cc5)CC4)cc3F)c1NC2
IC50 [31]: > 1000 nM

COc1cc2c(cc1OC)Nc1ncnc(Oc3ccc(NC(=O)C4(C(=O)Nc5ccc(F)cc5)CC4)cc3)c1NC2
IC50 [29]: 4910 nM
IC50 [33]: 5340 nM
IC50 [34]: 7120 nM
IC50 [40]: 1470 nM

Cc1nc(Oc2ccc(NC(=O)C3(C(=O)Nc4ccc(F)cc4)CC3)cc2)c2c(n1)Oc1ccccc1CN2
IC50 [31]: > 1000 nM

COc1cc2c(cc1OC)Nc1ncnc(Oc3ccc(NC(=O)C4(C(=O)Nc5ccc(F)cc5)CC4)cc3)c1N=C2
IC50 [29]: 2070 nM
IC50 [33]: 2720 nM
IC50 [34]: 1420 nM
IC50 [40]: 1480 nM

COc1cc2c(cc1OC)Nc1nccc(Oc3ccc(NC(=O)C4(C(=O)Nc5ccc(F)cc5)CC4)cc3)c1NC2
IC50 [31]: > 1000 nM
